Source: patent US20240285599A1, “Mature-Hepatocyte Transdifferentiation Suppressing Composition” (OSAKA UNIVERSITY, priority 2021, published 2024)

Columns and labels:
HuCCT1 cell xenograft = assay: HuCCT1 xenograft in NOG mouse, oral NIKSMI; type: in vivo; conditions: twice a day, 200 mg/kg
Protocol: (§1) A histopathological slide was deparaffinized with xylene and ethanol. HE staining was performed with hematoxylin and eosin. In immunostaining, antigen activation was performed by heating in Target Retrieval Solution (Dako, USA), followed by blocking with bovine serum albumin and a reaction through use of a primary antibody at 4° C. overnight. A frozen section was dried at room temperature, and was blocked with BSA (Nacalai Tesque, Inc., Japan), followed by a reaction through use of a primary antibody in VECTASTAIN ABC Rabbit IgG Kit (Vector Laboratories, Inc., USA). DAB Substrate Kit (Vector Laboratories, Inc., USA) was used in a staining reaction. […] The number of Ki67-positive cells in a tumor was counted with ImageJ (Fiji). The immunostaining score of TRAF3 or NIK was calculated by multiplying a staining intensity (of from 0 to 3) by a stained area (%). Human ICC patients were grouped into two groups on the basis of the median immunostaining score of TRAF3 or NIK, and were evaluated for their disease-free survival (DFS) or overall survival (OS).
To generate a xenograft tumor, 5×10^6 HuCCT1 cells were mixed with Matrigel at a ratio of 1:1, and the mixture was subcutaneously injected into each of NOG mice. […] During the period, the diameters of the tumors were measured every 3 days, and the tumor sizes were each calculated by using the following equation. […]

L-Traf3/PtenDKO mouse = assay: Oral NIKSMI in L-Traf3/PtenDKO mouse: liver HE staining, KRT19 immunostaining and KRT19 expression; type: in vivo; conditions: twice a day, 200 mg/kg
Protocol: as §1, with “reaction. The following antibodies were used in the immunostaining: KRT19 (1:500 Abcam, ab52625), TRAF3 (1:100 Abcam, ab217033), NIK (1:400 Novus Biologicals, NBP2-23603), p-RIP3K (1:100 Genentech), and KI67 (1:1,000 Cell Signaling, #12202S).” for “reaction.”, “(OS). […]” for “(OS).”

`COc1cc(C(N)=O)nc(-c2cccc(C#C[C@]3(O)CCN(C)C3=O)c2)c1` [NIKSMI, (R)-6-(3-((3-hydroxy-1-methyl-2-oxopyrrolidin-3-yl)ethynyl)phenyl)-4-methoxypicolinamide] was tested, and the “number of Ki67-positive cells in tumors versus vehicle-administered tumors” value (HuCCT1 cell xenograft; NOG mouse HuCCT1 xenograft, 14 days, FIG. 23B) was “significantly lower”, the “growth of xenografts derived from the HuCCT1 cells (tumor size)” value (HuCCT1 cell xenograft; NOG mouse, 14 days from day 28 after transplantation, FIG. 23A) was “significantly suppressed” and the “overgrowth of a cholangiocyte in liver (HE staining, KRT19 immunostaining)” value (L-Traf3/PtenDKO mouse; 14 days from age 4 weeks, liver at 6 weeks, FIG. 15A) was “significantly suppressed”. For the same compound, the “expression level of the bile duct marker KRT19 in the liver” value (L-Traf3/PtenDKO mouse; 14 days, FIG. 15B) was “significantly suppressed”.
